Patent US20240066008A1, “Device and Antitumor Drug for the Treatment of Neoplastic Cells” (Telea Electronic Engineering SRL, priority 2021, published 2024)

System: A172 glioblastoma cells
Experiment: Cell viability, Trypan blue exclusion assay
Format: cell-based
Conditions: Homo sapiens, A 172, TMZ 10 μM for 144 hours in combination with 24-hour QMR treatment (4 MHz current waves), vs TMZ alone, FIG. 12b, read-out: cell viability reduced more than the reduction obtained in cells treated with TMZ drug alone
Experimental: Glioblastoma cell lines A172, T98G and U87MG were used. A172 and T98G cells (Sigma-Aldrich, St. Louis, MO, USA) were cultured in Dulbecco's Modified Eagle's Medium/Nutrient Mixture F-12 (DMEM/F12 GlutaMAX, Gibco, Thermo Fisher Scientific, Waltham, MA, USA) added with 10% foetal bovine serum (FBS) (Qualified Australian, Gibco, Thermo Fisher Scientific) and 1% penicillin/streptomycin (Sigma-Aldrich).
The cell lines were stimulated with QMR using a prototype QMR device from the company Telea (Telea Electronic Engineering, Sandrigo, VI, Italy). The device, suitably adapted for the present in vitro experiments, generated high-frequency sinusoidal alternating electric current waves of 4 MHz with harmonics from 4 to 64 MHz and had the following data: power supply 100÷230 V˜50/60 Hz; maximum output power, 5 W/400Ω.
QMR was applied to the cells using a pair of electrodes that were placed inside a 100 mm Petri dish, at the edge, and connected to the generator device. […] This value was measured by means of three independent measurements with a data-logger probe (iLog, Escort Scunthorpe, UK) placed in the culture medium. […]
For these analyses, the cells were treated for 144 hours with 10-25 μM of TMZ administered at the same time as or after QMR stimulation. […] Cell viability, apoptosis and the cell cycle were assessed after 144 hours. […]

Cn1nnc2c(C(N)=O)ncn2c1=O [TMZ, temozolomide]
cytotoxicity at 10 µM: ~12%
